Measurements reported in PMC11879280, “Antimicrobial activity of peptoids against Metallo-β-lactamase-producing Klebsiella pneumoniae, Acinetobacter baumannii, Pseudomonas aeruginosa, and other WHO priority pathogens, including Candida auris” (Journal of Applied Microbiology, 2025).

Legend:
E. coli 0011 = settings: E. coli 0011; CAMHB, 37°C, 16–20 h
Procedure: (§1) Briefly, bacteria were suspended in cation-adjusted Mueller–Hinton broth (CAMHB; Oxoid, UK) for antibiotics, or MHB (Oxoid, UK) for peptidomimetics to obtain 5 × 10^5 colony forming unit (CFU) ml^−1. […] Positive controls contained only microbes, and blanks contained only media. Microbial suspensions (100 µl) were added to wells, plates wrapped, and incubated at 37°C, 120 rpm for 16–20 h. After incubation, suspensions were removed, log10 diluted, and plated on Trypticase Soya Agar with phosphatidylcholine and Tween 80 to determine minimum bactericidal or fungicidal concentration (MBC or MFC). […] Geometric mean MIC of the peptoids were calculated to evaluate the broad overview of antimicrobial activity across the pathogens.

En. cloacae 001 = settings: En. cloacae 001; CAMHB, 37°C, 16–20 h
Procedure: as §1

P. aeruginosa 216 = settings: P. aeruginosa 216; CAMHB, 37°C, 16–20 h
Procedure: as §1

En. cloacae 005 = settings: En. cloacae 005; CAMHB, 37°C, 16–20 h
Procedure: as §1

K. pneumoniae JIE2709 [1] = settings: K. pneumoniae JIE2709; CAMHB, 37°C, 16–20 h
Procedure: as §1

K. pneumoniae JIE2713 [2] = settings: K. pneumoniae JIE2713; CAMHB, 37°C, 16–20 h
Procedure: as §1

E. coli 0010 = settings: E. coli 0010; CAMHB, 37°C, 16–20 h
Procedure: as §1

K. pneumoniae JIE4212 = settings: K. pneumoniae JIE4212; CAMHB, 37°C, 16–20 h
Procedure: as §1

E. coli 0015 = settings: E. coli 0015; CAMHB, 37°C, 16–20 h
Procedure: as §1

P. aeruginosa AR-1270 = settings: P. aeruginosa AR-1270; CAMHB, 37°C, 16–20 h
Procedure: as §1

P. aeruginosa 33 = settings: P. aeruginosa 33; CAMHB, 37°C, 16–20 h
Procedure: as §1

En. cloacae 003 = settings: En. cloacae 003; CAMHB, 37°C, 16–20 h
Procedure: as §1

E. coli 005 = settings: E. coli 005; CAMHB, 37°C, 16–20 h
Procedure: as §1

K. pneumoniae JIE2713 [3] = assay: Checkerboard microdilution synergy test; format: cell-based, Klebsiella pneumoniae; settings: for MIC: Klebsiella pneumoniae, read-out: MIC of DrugB (alone, checkerboard); for FICDrugB / MF of antibiotic (modulation factor) / MIC of DrugB + TM8: in combination with TM8
Procedure: (§2) Then, 10 µl of bacteria (5 × 10^6 CFU ml^−1) or C. auris (2.5 × 10^4 CFU ml^−1) were added to each well, except for the sterility control well. […] The sterility control wells contained only MHB (or RPMI in case of C. auris), and the growth control contained 110 µl of microbial inoculum with no antimicrobials. Subsequently, the plates were incubated for 18- 24 hours at 36 ± 1 °C.
(§3) The FIC for each combination interaction was calculated as follows:
(§4) Then, the summation of FIC (ƩFIC) was calculated for each antimicrobial combination as follows: ƩFIC = FICA + FICB. […] All antimicrobial synergy experiments were repeated in at least two independent runs.

A. baumannii 006 = settings: A. baumannii 006; CAMHB, 37°C, 16–20 h
Procedure: as §1

A. baumannii ATCC 19 606 = settings: A. baumannii ATCC 19 606; CAMHB, 37°C, 16–20 h
Procedure: as §1

A. baumannii 008 = settings: A. baumannii 008; CAMHB, 37°C, 16–20 h
Procedure: as §1

A. baumannii 007 = settings: A. baumannii 007; CAMHB, 37°C, 16–20 h
Procedure: as §1

A. baumannii 005 = settings: A. baumannii 005; CAMHB, 37°C, 16–20 h
Procedure: as §1

K. pneumoniae JIE2709 [4] = assay: Checkerboard microdilution synergy test; format: cell-based, Klebsiella pneumoniae
Procedure: as §2, §3, §4

Row | MIC of antibiotics (E. coli 0011) | MIC of antibiotics (En. cloacae 001) | MIC of antibiotics (P. aeruginosa 216) | MIC of antibiotics (En. cloacae 005) | MIC of antibiotics (K. pneumoniae JIE2709 [1]) | MIC of antibiotics (K. pneumoniae JIE2713 [2]) | MIC of antibiotics (E. coli 0010) | MIC of antibiotics (K. pneumoniae JIE4212) | MIC of antibiotics (E. coli 0015) | MIC of antibiotics (P. aeruginosa AR-1270) | MIC of antibiotics (P. aeruginosa 33) | MIC of antibiotics (En. cloacae 003) | MIC of antibiotics (E. coli 005) | MIC (K. pneumoniae JIE2713 [3]) | MIC of DrugB + TM8 (K. pneumoniae JIE2713 [3]) | MIC of antibiotics (A. baumannii 006) | MIC of antibiotics (A. baumannii ATCC 19 606) | MIC of antibiotics (A. baumannii 008) | Compound | FICDrugB (K. pneumoniae JIE2713 [3]) | MF of antibiotic (modulation factor) (K. pneumoniae JIE2713 [3]) | other results
1 | 4 µg/mL | 4 µg/mL | 4 µg/mL | 16 µg/mL | >128 µg/mL | 128 µg/mL | 2 µg/mL | >128 µg/mL | 0.5 µg/mL | >128 µg/mL | 128 µg/mL | 4 µg/mL | 0.5 µg/mL | 128 µg/mL | 64 µg/mL | – | – | – | C[C@H]1[C@H](NC(=O)/C(=N\OC(C)(C)C(=O)O)c2csc(N)n2)C(=O)N1S(=O)(=O)O [Azt, aztreonam, reference compound] | 0.5 | 2 | –
2 | 4 µg/mL | 4 µg/mL | 2 µg/mL | 128 µg/mL | 32 µg/mL | >512 µg/mL | 2 µg/mL | >512 µg/mL | 0.5 µg/mL | >512 µg/mL | 32 µg/mL | 4 µg/mL | 0.25 µg/mL | – | – | 512 µg/mL | 8 µg/mL | 512 µg/mL | CC(C)(O/N=C(\C(=O)N[C@@H]1C(=O)N2C(C(=O)[O-])=C(C[n+]3ccccc3)CS[C@H]12)c1csc(N)n1)C(=O)O [Cefaz, ceftazidime, reference compound] | – | – | MIC of antibiotics (A. baumannii 007): 512 µg/mL; MIC of antibiotics (A. baumannii 005): 512 µg/mL
3 | 4 µg/mL | 4 µg/mL | – | 128 µg/mL | 32 µg/mL | >512 µg/mL | 2 µg/mL | >512 µg/mL | 0.5 µg/mL | – | – | 8 µg/mL | 0.25 µg/mL | 1020 µg/mL | 512 µg/mL | 512 µg/mL | 8 µg/mL | 512 µg/mL | CO/N=C(\C(=O)N[C@@H]1C(=O)N2C(C(=O)O)=C(COC(C)=O)CS[C@H]12)c1csc(N)n1 [Cefot, cefotaxime, reference compound] | 0.5 | 2 | MIC of antibiotics (A. baumannii 007): 512 µg/mL; MIC of antibiotics (A. baumannii 005): 512 µg/mL; MIC (K. pneumoniae JIE2709 [4]; Klebsiella pneumoniae, read-out: MIC of DrugB (alone, checkerboard)): 32 µg/mL; FICDrugB (K. pneumoniae JIE2709 [4]; in combination with TM8): 0.5; MF of antibiotic (modulation factor) (K. pneumoniae JIE2709 [4]; in combination with TM8): 2; MIC of DrugB + TM8 (K. pneumoniae JIE2709 [4]; in combination with TM8): 16 µg/mL
4 | – | – | – | – | – | – | – | – | – | – | – | – | – | – | 32 µg/mL | – | – | – | O=C(O)c1cn(C2CC2)c2cc(N3CCNCC3)c(F)cc2c1=O [Cip, ciprofloxacin] | 0.023 | 4 | FICDrugB (K. pneumoniae JIE2709 [4]; in combination with TM8): 0.5; MF of antibiotic (modulation factor) (K. pneumoniae JIE2709 [4]; in combination with TM8): 2
